Experimental data as given in ChEMBL document CHEMBL1201862, “PubChem BioAssay data set” (2004).
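96-well plates; 48 h exposure; 5 concentrations. Endpoints by linear interpolation between flanking doses. Not reached: highest tested concentration assigned. GI50 marks 50% less growth.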 Active and inactive are the calls of the source. Rule as the data show it: active = GI50 up to about 1.1 µM and inactive = higher.

How the values were obtained:
Experiment in all cases: growth of human tumour cells (NCI), 48 h
[1] = tested on: UACC-62
[2] = tested on: RXF 393
[3] = tested on: NCI-H460
[4] = tested on: SF-295
[5] = tested on: T47D
[6] = tested on: SK-MEL-2
[7] = tested on: A498
[8] = tested on: COLO 205
[9] = tested on: 786-0
[10] = tested on: IGROV-1
[11] = tested on: EKVX
[12] = tested on: HOP-62
[13] = tested on: SK-MEL-28
[14] = tested on: HOP-92
[15] = tested on: DU-145
[16] = tested on: NCI/ADR-RES
[17] = tested on: NCI-H226
[18] = tested on: M14
[19] = tested on: UO-31
[20] = tested on: HCT-116
[21] = tested on: SF-539
[22] = tested on: KM12
[23] = tested on: NCI-H522
[24] = tested on: UACC-257
[25] = tested on: SF-268
[26] = tested on: ACHN
[27] = tested on: HCT-15
[28] = tested on: SW-620
[29] = tested on: HL-60
[30] = tested on: MDA-N
[31] = tested on: PC-3
[32] = tested on: HCC 2998
[33] = tested on: K562
[34] = tested on: HT-29
[35] = tested on: OVCAR-4
[36] = tested on: A549
[37] = tested on: Hs-578T
[38] = tested on: OVCAR-5
[39] = tested on: MDA-MB-231
[40] = tested on: SK-OV-3
[41] = tested on: OVCAR-3
[42] = tested on: LOX IMVI
[43] = tested on: MDA-MB-435
[44] = tested on: Malme-3M
[45] = tested on: U-251
[46] = tested on: SN12C
[47] = tested on: NCI-H23
[48] = tested on: SR
[49] = tested on: RPMI-8226
[50] = tested on: SK-MEL-5
[51] = tested on: TK-10
[52] = tested on: SNB-19
[53] = tested on: OVCAR-8
[54] = tested on: MOLT-4
[55] = tested on: SNB-75
[56] = tested on: MCF7
[57] = tested on: CCRF-CEM
[58] = tested on: CAKI-1

Measured: GI50

CC1(C)c2ccccc2C(O)C12CCC(=O)CC2 (stereo not drawn)
> 100 µM: [27]
inactive: [1] > 100 µM | [2] 14.5 µM | [3] > 100 µM | [4] > 100 µM | [5] > 100 µM | [6] > 100 µM | [7] > 100 µM | [8] > 100 µM | [9] > 100 µM | [10] > 100 µM | [11] > 100 µM | [12] > 100 µM | [13] > 100 µM | [14] > 100 µM | [15] > 100 µM | [16] > 100 µM | [17] > 100 µM | [18] > 100 µM | [19] > 100 µM | [20] 9.2 µM | [21] > 100 µM | [22] > 100 µM | [23] > 100 µM | [24] > 100 µM | [25] > 100 µM | [26] > 100 µM | [28] > 100 µM | [29] > 100 µM | [30] > 100 µM | [31] > 100 µM | [32] > 100 µM | [33] > 100 µM | [34] > 100 µM | [35] > 100 µM | [36] 34 µM | [37] > 100 µM | [38] > 100 µM | [39] > 100 µM | [40] > 100 µM | [41] > 100 µM | [42] > 100 µM | [43] > 100 µM | [44] > 100 µM | [45] > 100 µM | [46] > 100 µM | [47] > 100 µM | [48] > 100 µM | [49] > 100 µM | [50] > 100 µM | [51] > 100 µM | [52] > 100 µM

CC/C(=C\c1ccc(Cl)c(Cl)c1)[N+](=O)[O-]
inactive: [1] 1.93 µM | [3] 2.42 µM | [4] 2.04 µM | [5] 2.93 µM | [6] 2.28 µM | [7] 8.18 µM | [8] 1.72 µM | [9] 1.59 µM | [10] 1.64 µM | [11] 2.76 µM | [12] 2.96 µM | [13] 2.06 µM | [15] 1.86 µM | [16] 2.27 µM | [17] 2.23 µM | [18] 1.45 µM | [19] 1.88 µM | [53] 1.68 µM | [20] 3.66 µM | [21] 1.89 µM | [22] 2.96 µM | [23] 1.72 µM | [24] 1.94 µM | [25] 2.03 µM | [26] 1.75 µM | [28] 3.03 µM | [29] 1.18 µM | [55] 3.84 µM | [31] 2.23 µM | [32] 1.7 µM | [33] 2.13 µM | [34] 3.4 µM | [35] 3 µM | [36] 2.1 µM | [37] 3.48 µM | [38] 2.06 µM | [39] 2.53 µM | [43] 1.71 µM | [44] 1.92 µM | [56] 1.15 µM | [45] 1.86 µM | [46] 2.09 µM | [47] 2.34 µM | [49] 1.92 µM | [50] 1.97 µM | [51] 1.94 µM | [52] 2.36 µM
active: [54] 0.236 µM | [42] 0.405 µM | [48] 0.948 µM
1.66 µM: [27]

C[C@@H](CO)C1=CC(C#C[Si](C)(C)C)N(C(=O)Oc2ccccc2)c2ccccc21 (stereo partly drawn)
inactive: [1] 9.1 µM | [2] 5.86 µM | [3] 18.1 µM | [4] 12.2 µM | [5] 18.2 µM | [6] 16.9 µM | [8] 23.8 µM | [9] 17.2 µM | [10] 17.1 µM | [11] 23.3 µM | [57] 20.4 µM | [58] 24 µM | [12] 15 µM | [13] 18.2 µM | [14] 11.7 µM | [15] 21.6 µM | [16] 11.8 µM | [17] 20 µM | [18] 16.3 µM | [19] 14.7 µM | [53] 17.5 µM | [20] 15.3 µM | [54] 3.29 µM | [21] 17.8 µM | [22] 14.2 µM | [23] 16.8 µM | [24] 16.8 µM | [25] 16.5 µM | [26] 18.6 µM | [28] 24 µM | [29] 17.1 µM | [55] 10.1 µM | [30] 7.08 µM | [31] 19.6 µM | [32] 15.2 µM | [33] 1.49 µM | [34] 16 µM | [35] 12.6 µM | [36] 20.9 µM | [37] 25.1 µM | [38] 19.8 µM | [39] 17.7 µM | [40] 23.3 µM | [41] 13.2 µM | [42] 17.6 µM | [43] 3.45 µM | [45] 18.3 µM | [46] 16.8 µM | [47] 6.75 µM | [48] 5.65 µM | [49] 24.9 µM | [50] 16 µM | [51] 31.1 µM | [52] 27.2 µM
6.37 µM: [27]
